Assay results taken from ChEMBL document CHEMBL1135927, “Vinyl sulfide cyclized analogues of angiotensin II with high affinity and full agonist activity at the AT(1) receptor” (J Med Chem, 2002).
Active and inactive are the calls of the source. The rule behind the calls is not given here. *1 amine or outer side, *2 acyl side, *3 side chain or, on linkers, in order; H or OH if unused. Where a SMILES comes first, the peptide text is derived from it. Bridges are numbered along the chain shown (N, C = ends). [ ]: non-standard residue; d: D form. X1 = O=C([C@H](CC/C=C\[*:3])N[*:1])[*:2]; X2 = O=C([C@H](CC/C=C/[*:3])N[*:1])[*:2]; hCys = N[C@@H](CCS)C(=O)O

Key:
Oryctolagus cuniculus = species on record: Oryctolagus cuniculus; assay: Agonistic activity in vascular contractility study on rabbit aorta; format: functional, organism-based
[1] = target: T1, Type-1 angiotensin II receptor B (Rattus norvegicus, UniProt P29089); assay: In vitro binding affinity at rat liver Angiotensin II receptor, type 1 was determined based on displacement of [125I]-Ang II
T1 sequence (P29089 whole entry): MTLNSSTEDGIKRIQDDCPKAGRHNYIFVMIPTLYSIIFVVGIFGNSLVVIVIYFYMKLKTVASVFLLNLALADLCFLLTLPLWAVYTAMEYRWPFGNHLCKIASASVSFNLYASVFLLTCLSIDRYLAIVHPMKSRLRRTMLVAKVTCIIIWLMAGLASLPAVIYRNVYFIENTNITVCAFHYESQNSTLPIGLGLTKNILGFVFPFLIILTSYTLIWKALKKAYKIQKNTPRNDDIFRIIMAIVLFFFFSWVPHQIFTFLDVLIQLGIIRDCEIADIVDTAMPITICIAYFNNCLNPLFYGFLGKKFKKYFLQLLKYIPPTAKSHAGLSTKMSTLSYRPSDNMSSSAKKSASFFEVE

[2] = target: T2, Type-1 angiotensin II receptor B (Rattus norvegicus) (UniProt P29089); assay: In vitro binding affinity at rat liver Angiotensin II receptor, type 1 was determined based on displacement of [125I]-Ang II; no affinity
T2 sequence (whole entry): T1 sequence (P29089 whole entry)

Structure (SMILES)	EC50 (Oryctolagus cuniculus) [nM]	Ki [1] [nM]	other results
NC(N)=NCCC[C@H](NC(=O)[C@@H](N)CC(=O)O)C(=O)N[C@H]1CS/C=C/CC[C@@H](C(=O)N[C@@H](Cc2c[nH]cn2)C(=O)N2CCC[C@H]2C(=O)N[C@@H](Cc2ccccc2)C(=O)O)NC(=O)[C@H](Cc2ccc(O)cc2)NC1=O (H-DRCY[X2]HPF-OH; thioether 3-5)	16.1	–	–
NC(N)=NCCC[C@H](NC(=O)[C@@H](N)CC(=O)O)C(=O)N[C@H]1CCSSCC[C@@H](C(=O)N[C@@H](Cc2c[nH]cn2)C(=O)N2CCC[C@H]2C(=O)N[C@@H](Cc2ccccc2)C(=O)O)NC(=O)[C@H](Cc2ccc(O)cc2)NC1=O (H-DR[hCys]Y[hCys]HPF-OH; disulfide 3-5)	–	0.23	–
CC(C)[C@H](NC(=O)[C@H](CCCN=C(N)N)NC(=O)[C@@H](N)CC(=O)O)C(=O)N[C@@H](Cc1ccc(O)cc1)C(=O)N[C@H]1CC/C=C\SC[C@@H](C(=O)N[C@@H](Cc2ccccc2)C(=O)O)NC(=O)[C@H](Cc2c[nH]cn2)NC1=O (H-DRVY[X1]HCF-OH; thioether 5-7)	–	–	NA [2]: inactive
CC[C@H](C)[C@H](NC(=O)[C@H](Cc1ccc(O)cc1)NC(=O)[C@@H](NC(=O)[C@H](CCCNC(=N)N)NC(=O)[C@@H](N)CC(=O)O)C(C)C)C(=O)N[C@@H](Cc1cnc[nH]1)C(=O)N1CCC[C@H]1C(=O)N[C@@H](Cc1ccccc1)C(=O)O [ANGIOTENSIN II]	1.4	–	–
NC(N)=NCCC[C@H](NC(=O)[C@@H](N)CC(=O)O)C(=O)N[C@H]1CS/C=C/CC[C@@H](C(=O)N[C@@H](Cc2cnc[nH]2)C(=O)N2CCC[C@H]2C(=O)N[C@@H](Cc2ccccc2)C(=O)O)NC(=O)[C@H](Cc2ccc(O)cc2)NC1=O (H-DRCY[X2]HPF-OH; thioether 3-5)	–	1.7	–
NC(N)=NCCC[C@H](NC(=O)[C@@H](N)CC(=O)O)C(=O)N[C@H]1CS/C=C\CC[C@@H](C(=O)N[C@@H](Cc2cnc[nH]2)C(=O)N2CCC[C@H]2C(=O)N[C@@H](Cc2ccccc2)C(=O)O)NC(=O)[C@H](Cc2ccc(O)cc2)NC1=O (H-DRCY[X1]HPF-OH; thioether 3-5)	–	1.7	–
CC(C)[C@H](NC(=O)[C@H](CCCN=C(N)N)NC(=O)[C@@H](N)CC(=O)O)C(=O)N[C@@H](Cc1ccc(O)cc1)C(=O)N[C@H]1CC/C=C/SC[C@@H](C(=O)N[C@@H](Cc2ccccc2)C(=O)O)NC(=O)[C@H](Cc2c[nH]cn2)NC1=O (H-DRVY[X2]HCF-OH; thioether 5-7)	–	–	NA [2]: inactive
NC(N)=NCCC[C@H](NC(=O)[C@@H](N)CC(=O)O)C(=O)N[C@H]1CS/C=C\CC[C@@H](C(=O)N[C@@H](Cc2c[nH]cn2)C(=O)N2CCC[C@H]2C(=O)N[C@@H](Cc2ccccc2)C(=O)O)NC(=O)[C@H](Cc2ccc(O)cc2)NC1=O (H-DRCY[X1]HPF-OH; thioether 3-5)	26	–	–
